From patent US11445724B2, “Insecticidal compounds” (SYNGENTA PARTICIPATIONS AG, priority 2013, dated 2022)

How the values were obtained:
Format in all cases: in vivo
[1] = tested on: Myzus persicae (Green peach aphid); assay: Myzus persicae (Green peach aphid) mortality, test compounds mixed with Sucrose solution under Parafilm; conditions: 120 h, 12.5 ppm in Sucrose solution, infested pea seedlings on Parafilm, mortality 5 days after infestation
[2] = tested on: Diabrotica balteata (Corn root worm); assay: Diabrotica balteata (Corn root worm) larval mortality, artificial diet in 24-well MTP; conditions: 120 h, application rate 200 ppm (concentration in well 18 ppm), L2 larvae, larval mortality after 5 days
[3] = tested on: Plutella xylostella (Diamond back moth); assay: Plutella xylostella (Diamond back moth) larval mortality, artificial diet in 24-well MTP; conditions: 144 h, application rate 200 ppm (concentration in well 18 ppm), L2 larvae, larval mortality after 6 days
[4] = tested on: Spodoptera littoralis (Egyptian cotton leafworm); assay: Spodoptera littoralis (Egyptian cotton leafworm) mortality, sprayed cotton leaf discs; conditions: foliar, 72 h, 200 ppm spray on cotton leaf discs, L1 larvae, mortality 3 DAT
[5] = tested on: Thrips tabaci (Onion thrips); assay: Thrips tabaci (Onion thrips) mortality, sprayed sunflower leaf discs; conditions: foliar, 168 h, 200 ppm spray on sunflower leaf discs, mixed ages, mortality after 7 days
[6] = tested on: Myzus persicae (Green peach aphid); assay: Myzus persicae (Green peach aphid) mortality, sprayed sunflower leaf discs; conditions: foliar, 144 h, 200 ppm spray on sunflower leaf discs, mixed ages, mortality 6 DAT
[7] = tested on: Tetranychus urticae (Two-spotted spider mite); assay: Tetranychus urticae (Two-spotted spider mite) mortality, sprayed bean leaf discs; conditions: foliar, 192 h, 200 ppm spray on bean leaf discs, mixed ages, egg, larval and adult mortality after 8 days

CCN(C(=O)c1ccccc1)c1cccc(C(=O)Nc2c(Br)cc(C(F)(C(F)(F)F)C(F)(F)F)cc2OC(F)F)c1OC [Compound 138]
≥ 80%: pest or weed control at 12.5 ppm [1] | pest or weed control at 200 ppm [2] | pest or weed control at 200 ppm [3] | pest or weed control at 200 ppm [4] | pest or weed control at 200 ppm [5] | pest or weed control at 200 ppm [6]

CCN(C(=O)c1ccc([N+](=O)[O-])cc1Cl)c1cccc(C(=O)Nc2c(Cl)cc(C(F)(C(F)(F)F)C(F)(F)F)cc2OC(F)F)c1F [Compound 116]
≥ 80%: pest or weed control at 12.5 ppm [1] | pest or weed control at 200 ppm [2] | pest or weed control at 200 ppm [4] | pest or weed control at 200 ppm [5]

CCN(C(=O)c1cccc(F)c1F)c1cccc(C(=O)Nc2c(Cl)cc(C(F)(C(F)(F)F)C(F)(F)F)cc2OC(F)F)c1OC [Compound 159]
≥ 80%: pest or weed control at 12.5 ppm [1] | pest or weed control at 200 ppm [2] | pest or weed control at 200 ppm [3] | pest or weed control at 200 ppm [4] | pest or weed control at 200 ppm [5] | pest or weed control at 200 ppm [6]

CCN(C(=O)c1cccc(F)c1F)c1cccc(C(=O)Nc2c(Cl)cc(C(F)(C(F)(F)F)C(F)(F)F)cc2OC(F)F)c1F [Compound 123]
≥ 80%: pest or weed control at 12.5 ppm [1] | pest or weed control at 200 ppm [2] | pest or weed control at 200 ppm [3] | pest or weed control at 200 ppm [4] | pest or weed control at 200 ppm [5] | pest or weed control at 200 ppm [6]

CCN(C(=O)c1ccc(F)cc1F)c1cccc(C(=O)Nc2c(Cl)cc(C(F)(C(F)(F)F)C(F)(F)F)cc2OC(F)F)c1OC [Compound 160]
≥ 80%: pest or weed control at 12.5 ppm [1] | pest or weed control at 200 ppm [2] | pest or weed control at 200 ppm [3] | pest or weed control at 200 ppm [4] | pest or weed control at 200 ppm [5]

COc1c(NC(=O)c2ccccc2OC(F)(F)F)cccc1C(=O)Nc1c(Br)cc(C(F)(C(F)(F)F)C(F)(F)F)cc1OC(F)F [Compound 56]
≥ 80%: pest or weed control at 12.5 ppm [1] | pest or weed control at 200 ppm [2] | pest or weed control at 200 ppm [3] | pest or weed control at 200 ppm [4] | pest or weed control at 200 ppm [5] | pest or weed control at 200 ppm [6]

COc1c(NC(=O)c2ccc(OC(F)(F)F)cc2)cccc1C(=O)Nc1c(Cl)cc(C(F)(C(F)(F)F)C(F)(F)F)cc1OC(F)F [Compound 87]
≥ 80%: pest or weed control at 200 ppm [7] | pest or weed control at 200 ppm [2] | pest or weed control at 200 ppm [3] | pest or weed control at 200 ppm [4] | pest or weed control at 200 ppm [5]

COc1c(C(=O)Nc2c(Br)cc(C(F)(C(F)(F)F)C(F)(F)F)cc2OC(F)F)cccc1N(C)C(=O)c1cc[n+]([O-])cc1 [Compound 183, N-[3-[[2-bromo-6-(difluoromethoxy)-4-[1,2,2,2-tetrafluoro-1-(trifluoromethyl)ethyl]phenyl]carbamoyl]-2-methoxy-phenyl]-N-methyl-1-oxido-pyridin-1-ium-4-carboxamide]
≥ 80%: pest or weed control at 12.5 ppm [1] | pest or weed control at 200 ppm [2]

CCN(C(=O)c1cc(Cl)ccc1F)c1cccc(C(=O)Nc2c(Br)cc(C(F)(C(F)(F)F)C(F)(F)F)cc2OC(F)F)c1F [Compound 104]
≥ 80%: pest or weed control at 12.5 ppm [1] | pest or weed control at 200 ppm [2] | pest or weed control at 200 ppm [3] | pest or weed control at 200 ppm [4] | pest or weed control at 200 ppm [5]

CCN(C(=O)c1ccc([N+](=O)[O-])cc1)c1cccc(C(=O)Nc2c(Cl)cc(C(F)(C(F)(F)F)C(F)(F)F)cc2OC(F)F)c1F [Compound 113]
≥ 80%: pest or weed control at 12.5 ppm [1] | pest or weed control at 200 ppm [2] | pest or weed control at 200 ppm [3] | pest or weed control at 200 ppm [4]

COc1c(NC(=O)c2ccccc2F)cccc1C(=O)Nc1c(Br)cc(C(F)(C(F)(F)F)C(F)(F)F)cc1OC(F)F [Compound 33]
≥ 80%: pest or weed control at 12.5 ppm [1] | pest or weed control at 200 ppm [2] | pest or weed control at 200 ppm [3] | pest or weed control at 200 ppm [4] | pest or weed control at 200 ppm [5]

CCN(C(=O)c1ccccc1C(F)(F)F)c1cccc(C(=O)Nc2c(Br)cc(C(F)(C(F)(F)F)C(F)(F)F)cc2OC(F)F)c1OC [Compound 140]
≥ 80%: pest or weed control at 200 ppm [2] | pest or weed control at 200 ppm [3] | pest or weed control at 200 ppm [4] | pest or weed control at 200 ppm [5] | pest or weed control at 200 ppm [6]

CCN(C(=O)c1ccc(C(F)(F)F)cc1)c1cccc(C(=O)Nc2c(Cl)cc(C(F)(C(F)(F)F)C(F)(F)F)cc2OC(F)F)c1F [Compound 117]
≥ 80%: pest or weed control at 12.5 ppm [1] | pest or weed control at 200 ppm [2] | pest or weed control at 200 ppm [3] | pest or weed control at 200 ppm [4] | pest or weed control at 200 ppm [5]

COc1c(NC(=O)c2ccc(C)cc2)cccc1C(=O)Nc1c(Br)cc(C(F)(C(F)(F)F)C(F)(F)F)cc1OC(F)F [Compound 41]
≥ 80%: pest or weed control at 12.5 ppm [1] | pest or weed control at 200 ppm [2] | pest or weed control at 200 ppm [3] | pest or weed control at 200 ppm [4] | pest or weed control at 200 ppm [5] | pest or weed control at 200 ppm [6]

O=C(Nc1cccc(C(=O)Nc2c(Cl)cc(C(F)(C(F)(F)F)C(F)(F)F)cc2OC(F)F)c1F)c1ccccc1F [Compound 45]
≥ 80%: pest or weed control at 12.5 ppm [1] | pest or weed control at 200 ppm [2] | pest or weed control at 200 ppm [3] | pest or weed control at 200 ppm [4] | pest or weed control at 200 ppm [5] | pest or weed control at 200 ppm [6]

CCN(C(=O)c1ccc(C)cc1)c1cccc(C(=O)Nc2c(Cl)cc(C(F)(C(F)(F)F)C(F)(F)F)cc2OC(F)F)c1F [Compound 114]
≥ 80%: pest or weed control at 12.5 ppm [1] | pest or weed control at 200 ppm [2] | pest or weed control at 200 ppm [3] | pest or weed control at 200 ppm [4] | pest or weed control at 200 ppm [5]

CCN(C(=O)c1ccccc1C)c1cccc(C(=O)Nc2c(Br)cc(C(F)(C(F)(F)F)C(F)(F)F)cc2OC(F)F)c1F [Compound 126]
≥ 80%: pest or weed control at 12.5 ppm [1] | pest or weed control at 200 ppm [2] | pest or weed control at 200 ppm [3] | pest or weed control at 200 ppm [4] | pest or weed control at 200 ppm [5]

CCN(C(=O)c1ccccc1)c1cccc(C(=O)Nc2c(Cl)cc(C(F)(C(F)(F)F)C(F)(F)F)cc2OC(F)F)c1OC [Compound 155]
≥ 80%: pest or weed control at 12.5 ppm [1] | pest or weed control at 200 ppm [2] | pest or weed control at 200 ppm [3] | pest or weed control at 200 ppm [4] | pest or weed control at 200 ppm [5] | pest or weed control at 200 ppm [6]

CCN(C(=O)c1ccc(C(F)(F)F)cc1)c1cccc(C(=O)Nc2c(Br)cc(C(F)(C(F)(F)F)C(F)(F)F)cc2OC(F)F)c1F [Compound 105]
≥ 80%: pest or weed control at 12.5 ppm [1] | pest or weed control at 200 ppm [2] | pest or weed control at 200 ppm [3] | pest or weed control at 200 ppm [4] | pest or weed control at 200 ppm [5] | pest or weed control at 200 ppm [6]

COc1c(NC(=O)c2cc(Cl)ccc2F)cccc1C(=O)Nc1c(Br)cc(C(F)(C(F)(F)F)C(F)(F)F)cc1OC(F)F [Compound 44]
≥ 80%: pest or weed control at 12.5 ppm [1] | pest or weed control at 200 ppm [3] | pest or weed control at 200 ppm [4]

CCN(C(=O)c1ccccc1F)c1cccc(C(=O)Nc2c(Cl)cc(C(F)(C(F)(F)F)C(F)(F)F)cc2OC(F)F)c1F [Compound 111]
≥ 80%: pest or weed control at 12.5 ppm [1] | pest or weed control at 200 ppm [2] | pest or weed control at 200 ppm [3] | pest or weed control at 200 ppm [4] | pest or weed control at 200 ppm [5] | pest or weed control at 200 ppm [6]

COc1c(NC(=O)c2ccccc2C(F)(F)F)cccc1C(=O)Nc1c(Br)cc(C(F)(C(F)(F)F)C(F)(F)F)cc1OC(F)F [Compound 63]
≥ 80%: pest or weed control at 200 ppm [2] | pest or weed control at 200 ppm [3] | pest or weed control at 200 ppm [4] | pest or weed control at 200 ppm [5] | pest or weed control at 200 ppm [6]

COc1c(NC(=O)c2ccc(F)c(C(F)(F)F)c2)cccc1C(=O)Nc1c(Br)cc(C(F)(C(F)(F)F)C(F)(F)F)cc1OC(F)F [Compound 52]
≥ 80%: pest or weed control at 200 ppm [2] | pest or weed control at 200 ppm [3] | pest or weed control at 200 ppm [4] | pest or weed control at 200 ppm [5] | pest or weed control at 200 ppm [6]

CCN(C(=O)c1cc(C(F)(F)F)ccc1F)c1cccc(C(=O)Nc2c(Br)cc(C(F)(C(F)(F)F)C(F)(F)F)cc2OC(F)F)c1F [Compound 110]
≥ 80%: pest or weed control at 12.5 ppm [1] | pest or weed control at 200 ppm [2] | pest or weed control at 200 ppm [3] | pest or weed control at 200 ppm [4] | pest or weed control at 200 ppm [5]

CCN(C(=O)c1ccccc1F)c1cccc(C(=O)Nc2c(Br)cc(C(F)(C(F)(F)F)C(F)(F)F)cc2OC(F)F)c1F [Compound 125]
≥ 80%: pest or weed control at 12.5 ppm [1] | pest or weed control at 200 ppm [2] | pest or weed control at 200 ppm [3] | pest or weed control at 200 ppm [4] | pest or weed control at 200 ppm [5] | pest or weed control at 200 ppm [6]

CCN(C(=O)c1cccc(F)c1F)c1cccc(C(=O)Nc2c(Br)cc(C(F)(C(F)(F)F)C(F)(F)F)cc2OC(F)F)c1OC [Compound 142]
≥ 80%: pest or weed control at 200 ppm [2] | pest or weed control at 200 ppm [3] | pest or weed control at 200 ppm [4] | pest or weed control at 200 ppm [5] | pest or weed control at 200 ppm [6]

CCN(C(=O)c1cc(Cl)ccc1F)c1cccc(C(=O)Nc2c(Cl)cc(C(F)(C(F)(F)F)C(F)(F)F)cc2OC(F)F)c1F [Compound 115]
≥ 80%: pest or weed control at 12.5 ppm [1] | pest or weed control at 200 ppm [2] | pest or weed control at 200 ppm [3] | pest or weed control at 200 ppm [4] | pest or weed control at 200 ppm [5]
